Common to all, as to type: cell-based
Experiment [1] concerns cellular response to IFN-α. Briefly: ISRE-Luc reporter assay: amplification of cellular response to IFN-α. The settings on record: for pEC50 / EC50: ISRE-Luc reporter cells, dose-response 0.8 to 150 µM, luciferase after 24 h, pEC50<3.8 = inactive; for pEC50 / EC50 / amplification of cellular response to IFN-α: IFN-α 150 IU/mL; for amplification of cellular response to IFN-α: HEK-293 ISRE-Luc (STING 37 cell line). The procedure:
Cells were cultured at 37°C and 5% CO2 in Dulbecco's modified Eagle's Medium (DMEM; Sigma-Aldrich) containing 10% fetal calf serum (FCS), penicillin and streptomycin. Experiments were performed on HEK-293 cells stably transfected with the ISRE-Luciferase reporter gene (ISRE-Luc), with or without NanoLuc as an additional reporter gene (Lucas-Hourani et al., 2013; Hayek et al., 2019).
Reporter cells were incubated with increasing concentrations of candidates DHODH inhibitors diluted in DMSO in the presence or not of recombinant IFN-α (150 IU/mL). Recombinant IFN-α was from Sigma-Aldrich or PBL Assay Science. Luciferase activity was quantified 24 h later.
To confirm that modulation of IFN-α is related to DHDOH inhibition by compounds of the invention, the same experiments were performed by adding either uridine (pyrimidine derivated nucleoside), dihydroorotate (DHO, the substrate od DHODH in pyrimidine de novo biosynthesis pathway) or orotate (the product of ubiquinone-mediated oxidation of DHO catalysed by DHODH) together with compound of the invention. uridine, orotate, and DHO are all from Sigma Aldrich.
Firefly luciferase expression in culture wells was measured using the Bright-Glo (Promega) or Britelite plus reagents (PerkinElmer), according to the manufacturer's recommendations. For each concentration, three independent experiments were performed.
Compounds were tested for their ability to boost cellular response to IFN-α using ISRE-Luc reporter cells.

In experiment [2] the test system is cellular response to IFN-γ. The experiment can be described thus: ISRE-Luc reporter assay: amplification of cellular response to type II IFN. The settings on record: HEK-293 ISRE-Luc, compound 80 µM, recombinant IFN-γ. The procedure: Reporter system, cell culture and luciferase assay are performed as exposed above. HEK-293 cells with the ISRE-Luc reporter gene were treated with DMSO or compounds of the invention in the absence or presence of recombinant IFN-γ (Figure 4A; Roussel Uclaf or Milteny Biotech, 150 IU/mL).
(§1) The same experiment was performed but using different dilutions ranging from 1/8 to 1/64 of conditioned supernatants from activated PBMCs, instead of recombinant IFN-γ. Human peripheral blood mononuclear cells (PBMC) from one healthy donor were isolated by density centrifugation with Lymphoprep medium (StemCell Technologies) from leucocytes concentrates obtained when plateletpheresis was performed (Etablissement Français du Sang; Paris; France). To activate PBMCs, cells were treated for 24 h with the TLR7/8 ligand R848 at 5 µg/mL (Sigma Aldrich) and supernatants were harvested. R848 is known to induce expression of several cytokines, within which IFN-γ which is found at high levels in PBMC supernatants in comparison with type I IFNs (Table 4). Table 4. Cytokine expression levels in culture supernatants of human PBMC activated with R848.

A further experiment has as its system HEK-293 cells. The experiment can be described thus: Cell viability / proliferation assay (CellTiter-Glo). The settings on record: 24, 48 and 72 h of culture. The procedure:
Cells were treated with DMSO or compounds of the invention at different concentrations, and the number of viable cells was determined using the CellTiter-Glo reagent after 24, 48 and 72 h of culture. Cellular viability was determined by quantification of ATP in culture wells using the CellTiter-Glo assay (Promega).
Two independent experiments were performed. Results were analyzed using one-way analysis of variance (ANOVA) with Bonferroni's post hoc test.

In experiment [3] the test system is de novo pyrimidine biosynthesis. The experiment can be described thus: Purine (G/A) and pyrimidine (C/U) quantification by HPLC-coupled spectrophotometry in HEK-293 cells. The settings on record: 24 h, 5, 10 or 20 µg/mL. The procedure:
Cells were cultured at 37°C and 5% CO2 in Dulbecco's modified Eagle's Medium (DMEM; Sigma-Aldrich) containing 10% fetal calf serum (FCS), penicillin and streptomycin. Nucleoside/nucleotide quantification in HEK-293 cells was performed as previously described in by Lucas-Hourani et al. (2017). Briefly, cells were plated in 6-well plates at 1x10^6 cells per well and after 24 h, several concentrations of compounds of the invention (diluted in DMSO) or DMSO alone was added.
One day later, cells were washed with PBS and cellular pellets were deproteinized by adding an equal volume of 6% perchloric acid. After 10 min of incubation on ice and clearing of the extracts by centrifugation (13,000 rpm for 10 min at 4°C), supernatants were supplemented with bidistilled water (V/V) and neutralized by the addition of 2 M Na2CO3. Extracts were analyzed by HPLC onto a C18 Supelco 5-µm (250 by 4.6 mm) column (Sigma) at 45°C using a mobile phase delivered at a flow rate of 1 mL/min. Buffer A contained 10 mM tetrabutylammonium hydroxide, 10 mM KH2PO4, and 0.25% MeOH and was adjusted to pH 6.9 with 1 M HCl. Buffer B contained 5.6 mM tetrabutylammonium hydroxide, 50 mM KH2PO4, and 30% MeOH and was neutralized to pH 7.0 with 1 M NaOH. […] Products were monitored spectrophotometrically at 254 nm with a diode array detector (PDA) and quantified by integration of the peak absorbance area. […]

Another experiment concerns human PBMC. Briefly: Cytokine expression levels in culture supernatants of PBMC activated with R848. The settings on record: PBMC + R848 5 µg/mL, 24 h, supernatant. How it is done:
as §1

As to “5'-cyclopropyl-3'H-spiro[cyclopentane-1,1'-furo[3,4-c]pyridine]-3',4(5'H)-dione [Compound 1]”, the pEC50 in experiment [1] turned out to be 4.3.

`CC1(CCc2ccccc2)OC(=O)c2c1ccn(C1CC1)c2=O` (stereo not shown) [Compound 4, 5-cyclopropyl-1-methyl-1-phenethylfuro[3,4-c]pyridine-3,4(1H,5H)-dione] showed an EC50 in experiment [1] of 6.31 µM.

For the molecule “5'-cyclopropyl-3'H-spiro[cyclohexane-1,1'-furo[3,4-c]pyridine]-3',4(5'H)-dione [Compound 2]”, in experiment [1], the “amplification of cellular response to IFN-α” value is reported as “amplified” and the pEC50 worked out at 4.4. In experiment [1] (compound 80 µM, uridine 125 µM, DHO 3 mM, orotate 3 mM), the “reversal of amplification of response to IFN-α by uridine, orotate or DHO” value was “reversed by orotate but not DHO”. Moreover, in experiment [2], the “Amplification of response to IFN type II” value is listed as “Amplification of response to IFN type II”. Besides, the “proliferation of HEK-293 cells (number of viable cells)” value in the experiment with HEK-293 cells is reported as “prevent cell proliferation”. The “Pyrimidine (U and C) levels” value in experiment [3] was “drop of pyrimidine cellular concentration”.

With `CC1(c2ccccc2)OC(=O)c2c1ccn(C1CC1)c2=O` (stereo not shown) [Compound 3, 5-cyclopropyl-1-methyl-1-phenylfuro[3,4-c]pyridine-3,4(1H,5H)-dione], in experiment [1], the “amplification of cellular response to IFN-α” value was “amplified” and a half-maximal response (EC50) required 25.1 µM.

As to `CCOCc1nc2c(N)nc3ccccc3c2n1CC(C)(C)O` [Compound R848], in the experiment on human PBMC, the GM-CSF is recorded as 0.043 ng/mL, the IFN-α2 was 0.097 ng/mL, the IFN-β is reported as 0.015 ng/mL and the IFN-γ came out at 4.2 ng/mL. In addition, in the experiment with human PBMC, the IFN-λ1 turned out to be 0.016 ng/mL, the IL-1β amounted to 12 ng/mL, the IL-6 is recorded as 65 ng/mL and the IL-8 is on record as 214 ng/mL. Besides, in the experiment on human PBMC, the IL-10 came out at 0.283 ng/mL, the IL-12p70 came out at 0.009 ng/mL, the IP10 is reported as 0.028 ng/mL and the TNF-α stood at 11 ng/mL.

The record behind these values is patent EP3750892A1, “NOVEL 5-CYCLOPROPYL-FURO[3,4-C]PYRIDINE-3,4(1H,5H)-DIONE 1,1' SUBSTITUTED DERIVATIVES AND THEIR USES” (Yerevan State University, priority 2019, dated 2020).
